Columns and labels:
[1] = molecular target: T1, human cardiac sodium channel, SCNSA (Homo sapiens, UniProt Q14524); experiment: Sodium channel whole-cell patch-clamp assay; format: cell-based; conditions: HEK293, HEK-293, protein-free buffer, read-out: Na channel, % inh
T1 construct: expressed in transfected cells; host or cells: HEK-293
Protocol: Whole-cell patch-clamp was used to directly measure inward sodium currents in HEK-293 cells expressing the human cardiac sodium channel, SCNSA. After reach steady-state effect in the presence of drug, rate-dependence was assessed by stimulation at frequencies of 1 Hz and 4 Hz. Experiments were carried out using an aqueous buffer at pH 7.4 and at room temperature. There is no protein in the buffer and drug concentrations reported are nominal free drug levels. Test article was evaluated up to 10 μM (protein-free buffer). […] Data is reported as percent inhibition at a fixed concentration.

[2] = Electrocardiography in anesthetized rabbits (rabbit in vivo EP effect)
Protocol: A dose-response study of test compound was conducted in anesthetized rabbits to assess the cardiac electrophysiologic profile established in the cellular ion channel assays.
Experiments were performed in propofol-fentanyl anesthetized closed-chest male rabbits. A body surface electrocardiogram (ECG) and an intra-cardiac His-bundle electrogram were continuously monitored and recorded during the studies, using a PoNeMah system and a Prucka electrophysiological recording system, respectively. Test compound was prepared on the day of study in a vehicle of PEG400:ethanol:water (1:1:1) at a dosing concentration of 30 mg/mL. Test compound (n=3) or vehicle (n=3) was given intravenously over 5 minutes via an infusion pump at incremental doses of 3, 10 and 30 mg/kg. The interval between doses was 10 minutes, allowing for a 5-minute test agent infusion and a 5-minute rest period. Blood was sampled at baseline (pre-drug infusion) and immediately at the end of each infusion. For the 30 mg/kg dose, additional blood samples were taken at 10, 20 and 30 minutes after the end of infusion.
PR interval, QRS duration and QT interval were averaged from a 1 minute ECG recording period at time of blood sampling. QT interval was corrected for heart rate effects using both Fridericia (QTcf) and Van der Water (QTcv) formulae. AH and HV intervals, representing A-V node conduction and His-Purkinje conduction, respectively, were assessed by manual measurements from the His-bundle electrogram. Data were expressed as percent change from pre-drug baseline (mean±SEM) for PR, QRS, AH and HV intervals as well as delta change from the pre-drug infusion baseline (mean±SEM) for QTc intervals. Changes of 10% in PR, QRS, and AH intervals, and 20% in HV interval, as well as >10 ms in QTc interval are considered significant based on experience with the model.

CCR1 = molecular target: T2, CCR1 (Homo sapiens, UniProt P32246); experiment: Human CCR1 THP-1 binding assay ([125I]MIP-1α competition); conditions: THP-1 cells
T2 construct: THP-1 monocytic leukemia cells are combined with 100 μg of LS WGA PS beads; endogenous in cells; host or cells: THP-1 monocytic leukemia cells
T2 sequence (P32246 1-355): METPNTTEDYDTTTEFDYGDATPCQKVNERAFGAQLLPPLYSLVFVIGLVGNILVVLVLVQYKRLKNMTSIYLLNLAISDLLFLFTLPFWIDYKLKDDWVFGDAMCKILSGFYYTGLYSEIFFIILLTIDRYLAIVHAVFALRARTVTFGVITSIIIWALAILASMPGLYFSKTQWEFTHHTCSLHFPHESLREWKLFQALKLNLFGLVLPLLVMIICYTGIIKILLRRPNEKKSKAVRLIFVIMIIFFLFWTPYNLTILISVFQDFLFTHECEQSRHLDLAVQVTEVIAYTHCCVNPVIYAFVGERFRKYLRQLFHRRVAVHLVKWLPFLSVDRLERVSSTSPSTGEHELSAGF
Protocol: For radioligand competition studies, a final concentration of 1×10^5 THP-1 monocytic leukemia cells are combined with 100 μg of LS WGA PS beads (Amersham, Cat.#: RPNQ 0260) in 40 μL of assay buffer (RPMI 1640 without phenol red, 50 mM HEPES, 5 mM MgCl2, 1 mM CaCl2, 0.1% BSA). The THP-1 cell/bead mixture was added to each well of a 384-well assay plate (PerkinElmer, Cat. #:6007899) containing test compound in 3-fold serial dilution, with final concentrations ranging from 8 μM to 0.14 nM. A final concentration of 0.1 nM [^125I]MIP-1α (PerkinElmer, Cat. # NEX298) in 20 μL assay buffer was added to the reaction. Unlabeled MIP-1α was added in excess to some wells to determine non-specific binding. Sealed assay plates were incubated at room temperature for 12 h then analyzed by LEADseeker™.
The competition data of the test compound over a range of concentrations is plotted as percentage inhibition of radioligand specifically bound in the absence of test compound (percent of total signal). After correcting for non-specific binding, IC50 values are determined. […] The Ki values are determined by application of the Cheng-Prusoff equation to the IC50 values, where Ki=IC50/(1+ligand concentration/Kd). […]

[3] = molecular target: T3, human cardiac L-type Ca channel (α1C) and its β subunit (Homo sapiens, UniProt Q13936); experiment: L-type calcium channel whole-cell patch-clamp assay; format: cell-based; conditions: @ 30 μM, HEK-293, protein-free buffer
T3 construct: expressed in transfected cells
T3 sequence (Q13936 whole entry): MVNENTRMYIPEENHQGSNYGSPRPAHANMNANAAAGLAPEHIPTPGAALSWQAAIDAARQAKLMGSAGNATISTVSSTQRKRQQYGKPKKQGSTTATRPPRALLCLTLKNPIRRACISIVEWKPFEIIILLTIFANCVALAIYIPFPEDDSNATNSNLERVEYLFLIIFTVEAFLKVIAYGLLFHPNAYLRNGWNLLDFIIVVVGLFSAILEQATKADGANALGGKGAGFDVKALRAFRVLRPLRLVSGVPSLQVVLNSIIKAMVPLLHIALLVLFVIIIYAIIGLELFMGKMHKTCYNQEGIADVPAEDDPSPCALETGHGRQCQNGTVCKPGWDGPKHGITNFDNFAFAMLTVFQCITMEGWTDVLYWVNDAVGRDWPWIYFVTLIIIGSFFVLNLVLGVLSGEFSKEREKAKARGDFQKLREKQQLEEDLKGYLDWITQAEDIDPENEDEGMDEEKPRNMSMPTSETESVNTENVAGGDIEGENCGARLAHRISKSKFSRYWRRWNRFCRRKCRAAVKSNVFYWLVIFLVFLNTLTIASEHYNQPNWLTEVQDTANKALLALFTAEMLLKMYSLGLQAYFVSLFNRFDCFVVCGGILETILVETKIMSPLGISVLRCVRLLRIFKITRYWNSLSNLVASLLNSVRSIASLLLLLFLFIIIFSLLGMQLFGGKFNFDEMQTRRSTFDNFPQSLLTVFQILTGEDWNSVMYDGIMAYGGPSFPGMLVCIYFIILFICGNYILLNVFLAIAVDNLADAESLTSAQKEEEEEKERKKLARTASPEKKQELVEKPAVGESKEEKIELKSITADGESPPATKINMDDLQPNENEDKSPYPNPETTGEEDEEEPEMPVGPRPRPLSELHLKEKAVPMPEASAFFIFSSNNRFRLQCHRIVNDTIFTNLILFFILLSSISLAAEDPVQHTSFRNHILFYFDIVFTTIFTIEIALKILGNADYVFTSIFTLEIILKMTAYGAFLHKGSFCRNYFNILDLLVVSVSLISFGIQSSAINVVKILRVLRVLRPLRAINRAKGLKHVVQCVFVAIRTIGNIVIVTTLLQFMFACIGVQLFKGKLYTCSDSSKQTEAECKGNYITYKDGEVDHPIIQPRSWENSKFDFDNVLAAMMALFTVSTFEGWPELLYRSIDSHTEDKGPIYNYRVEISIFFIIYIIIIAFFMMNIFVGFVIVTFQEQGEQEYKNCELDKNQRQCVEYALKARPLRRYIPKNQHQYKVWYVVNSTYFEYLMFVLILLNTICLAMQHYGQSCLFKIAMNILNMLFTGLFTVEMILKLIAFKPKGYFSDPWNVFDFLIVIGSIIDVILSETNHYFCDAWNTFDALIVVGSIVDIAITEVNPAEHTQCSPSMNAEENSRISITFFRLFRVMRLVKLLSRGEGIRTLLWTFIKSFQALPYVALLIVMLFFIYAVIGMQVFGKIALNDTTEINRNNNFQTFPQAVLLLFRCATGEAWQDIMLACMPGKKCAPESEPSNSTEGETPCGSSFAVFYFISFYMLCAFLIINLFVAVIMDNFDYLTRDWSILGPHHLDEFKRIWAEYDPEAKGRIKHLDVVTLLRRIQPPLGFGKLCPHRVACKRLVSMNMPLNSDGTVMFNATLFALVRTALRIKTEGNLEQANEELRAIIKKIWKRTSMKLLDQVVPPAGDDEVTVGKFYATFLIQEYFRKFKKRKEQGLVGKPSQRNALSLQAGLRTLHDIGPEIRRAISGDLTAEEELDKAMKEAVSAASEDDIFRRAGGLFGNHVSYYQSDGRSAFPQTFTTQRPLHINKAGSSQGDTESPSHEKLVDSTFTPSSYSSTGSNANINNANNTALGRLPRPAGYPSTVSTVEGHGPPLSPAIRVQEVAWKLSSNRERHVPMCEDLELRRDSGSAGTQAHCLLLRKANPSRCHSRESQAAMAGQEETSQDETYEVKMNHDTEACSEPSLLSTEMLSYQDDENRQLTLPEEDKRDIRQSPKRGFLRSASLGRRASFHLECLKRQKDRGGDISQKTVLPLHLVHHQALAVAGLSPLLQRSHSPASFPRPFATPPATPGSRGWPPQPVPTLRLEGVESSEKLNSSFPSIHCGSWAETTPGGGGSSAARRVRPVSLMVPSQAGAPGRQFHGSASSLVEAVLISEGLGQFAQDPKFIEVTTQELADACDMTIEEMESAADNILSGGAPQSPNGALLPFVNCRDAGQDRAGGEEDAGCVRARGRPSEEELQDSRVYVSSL
T3 sequence (Q08289 whole entry partner): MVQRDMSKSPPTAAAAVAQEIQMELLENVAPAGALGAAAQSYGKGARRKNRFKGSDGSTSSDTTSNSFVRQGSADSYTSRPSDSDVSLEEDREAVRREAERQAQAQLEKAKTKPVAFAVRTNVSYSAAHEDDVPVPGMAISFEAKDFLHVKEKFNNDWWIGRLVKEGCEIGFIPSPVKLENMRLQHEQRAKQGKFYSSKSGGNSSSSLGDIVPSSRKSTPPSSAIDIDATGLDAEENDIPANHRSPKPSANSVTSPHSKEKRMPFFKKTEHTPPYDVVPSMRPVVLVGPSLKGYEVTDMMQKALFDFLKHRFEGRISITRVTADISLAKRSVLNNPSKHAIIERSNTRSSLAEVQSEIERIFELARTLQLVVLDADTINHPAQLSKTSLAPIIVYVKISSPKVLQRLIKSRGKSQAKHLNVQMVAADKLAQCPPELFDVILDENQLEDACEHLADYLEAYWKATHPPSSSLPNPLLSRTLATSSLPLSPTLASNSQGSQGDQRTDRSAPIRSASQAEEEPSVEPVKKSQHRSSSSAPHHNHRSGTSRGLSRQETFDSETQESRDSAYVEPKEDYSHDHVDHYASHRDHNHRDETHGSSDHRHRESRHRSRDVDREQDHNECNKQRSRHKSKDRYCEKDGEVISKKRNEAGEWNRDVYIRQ
Protocol: In addition to the potential for interaction with the L-type calcium channel, whole-cell patch-clamp was used to directly measure inward calcium currents in HEK-293 cells stably expressing the cloned human cardiac L-type Ca channel (α1C) and its β subunit. Effects of compounds were calculated by measuring inhibition of peak current. Experiments were carried out using an aqueous buffer at pH 7.4 and at room temperature. There is no protein in the buffer and drug concentrations reported are nominal free drug levels. Data is reported as percent inhibition at a fixed concentration.

T1 sequence (Q14524 whole entry): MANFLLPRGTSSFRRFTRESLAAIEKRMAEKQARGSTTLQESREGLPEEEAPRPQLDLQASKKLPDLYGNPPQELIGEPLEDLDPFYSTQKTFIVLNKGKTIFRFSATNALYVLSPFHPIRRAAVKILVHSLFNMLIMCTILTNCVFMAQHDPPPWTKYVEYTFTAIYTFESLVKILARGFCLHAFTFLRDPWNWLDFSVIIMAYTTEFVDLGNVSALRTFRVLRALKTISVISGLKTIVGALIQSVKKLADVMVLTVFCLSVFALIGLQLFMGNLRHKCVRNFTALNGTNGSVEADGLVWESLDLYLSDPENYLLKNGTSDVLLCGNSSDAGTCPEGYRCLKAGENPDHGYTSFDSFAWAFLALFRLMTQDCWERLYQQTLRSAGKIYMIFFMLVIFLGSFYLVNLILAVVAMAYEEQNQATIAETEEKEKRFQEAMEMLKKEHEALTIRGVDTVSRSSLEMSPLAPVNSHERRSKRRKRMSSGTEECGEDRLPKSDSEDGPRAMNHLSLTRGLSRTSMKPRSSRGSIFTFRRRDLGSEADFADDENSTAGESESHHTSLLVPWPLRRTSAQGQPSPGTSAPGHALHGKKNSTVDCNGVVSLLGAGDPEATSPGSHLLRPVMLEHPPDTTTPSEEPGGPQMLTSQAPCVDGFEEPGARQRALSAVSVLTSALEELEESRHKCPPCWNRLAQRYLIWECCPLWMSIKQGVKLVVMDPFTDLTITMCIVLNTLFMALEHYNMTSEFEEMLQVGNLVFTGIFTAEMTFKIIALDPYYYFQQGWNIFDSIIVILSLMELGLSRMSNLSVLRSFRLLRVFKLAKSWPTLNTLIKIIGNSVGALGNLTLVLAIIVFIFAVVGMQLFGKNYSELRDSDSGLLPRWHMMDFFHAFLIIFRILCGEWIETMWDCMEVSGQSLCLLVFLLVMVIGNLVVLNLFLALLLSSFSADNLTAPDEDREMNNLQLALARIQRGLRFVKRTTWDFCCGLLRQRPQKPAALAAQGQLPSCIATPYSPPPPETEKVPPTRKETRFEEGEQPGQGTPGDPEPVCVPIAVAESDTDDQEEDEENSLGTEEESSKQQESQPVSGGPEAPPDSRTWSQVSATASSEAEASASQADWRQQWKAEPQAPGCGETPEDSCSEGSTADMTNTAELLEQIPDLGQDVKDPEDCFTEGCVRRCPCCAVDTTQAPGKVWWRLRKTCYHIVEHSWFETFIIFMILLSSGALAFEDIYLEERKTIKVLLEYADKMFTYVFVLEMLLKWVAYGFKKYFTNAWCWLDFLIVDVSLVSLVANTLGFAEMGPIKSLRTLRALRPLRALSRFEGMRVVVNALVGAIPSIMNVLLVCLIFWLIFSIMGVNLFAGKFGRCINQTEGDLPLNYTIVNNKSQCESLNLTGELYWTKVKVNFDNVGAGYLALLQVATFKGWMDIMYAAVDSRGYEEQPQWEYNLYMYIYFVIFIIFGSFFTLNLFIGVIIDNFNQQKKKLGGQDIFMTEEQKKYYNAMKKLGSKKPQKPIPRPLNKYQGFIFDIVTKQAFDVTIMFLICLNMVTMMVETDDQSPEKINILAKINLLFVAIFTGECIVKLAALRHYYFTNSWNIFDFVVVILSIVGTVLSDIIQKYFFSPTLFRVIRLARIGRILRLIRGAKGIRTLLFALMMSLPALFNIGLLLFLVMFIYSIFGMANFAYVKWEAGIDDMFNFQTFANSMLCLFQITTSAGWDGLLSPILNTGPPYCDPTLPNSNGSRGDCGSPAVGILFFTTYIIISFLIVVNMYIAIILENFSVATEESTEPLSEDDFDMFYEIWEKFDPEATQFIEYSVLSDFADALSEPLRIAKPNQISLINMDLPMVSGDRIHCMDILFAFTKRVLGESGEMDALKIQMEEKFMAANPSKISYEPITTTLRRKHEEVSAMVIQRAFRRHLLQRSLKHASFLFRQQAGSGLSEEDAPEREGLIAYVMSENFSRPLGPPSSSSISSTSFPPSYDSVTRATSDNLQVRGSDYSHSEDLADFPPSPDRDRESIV

| SMILES | inhibition at 10 µM [1] [%] | Cmax: Free drug (at NOEL dose) ([2]; at NOEL dose, free drug) [µM] | Cmax: Free drug (at QT effect dose) ([2]; at QT effect dose, free drug) [µM] | NOEL dose ([2]; i.v. infusion) [mg/kg] | QT effect Dose ([2]; i.v. infusion 3, 10, 30 mg/kg) [mg/kg] | QTcf, delta ([2]; i.v. infusion, change from pre-drug baseline) | Cmax ([2]; male, blood, iv, at QT effect dose, total drug) [µM] | Ki (CCR1) [nM] | Ca channel, % inh [3] [% @ 30 μM] |
| --- | --- | --- | --- | --- | --- | --- | --- | --- | --- |
| CC(C)[C@@H](NC(=O)[C@@H]1CCC(F)(F)C1)C(=O)N1CC[C@](O)(c2ccc(Cl)cc2)[C@@](C)(O)C1 [Compound I, (R)—N—((R)-1-((3S,4S)-4-(4-chlorophenyl)-3,4-dihydroxy-3-methylpiperidin-1-yl)-3-methyl-1-oxobutan-2-yl)-3,3-difluorocyclopentanecarboxamide] | 21 | 52 | 52 | 30 | > 30 | No effect | 96 | 1.6 | 29 |
| CC(C)COC(=O)N[C@@H](C(=O)N1CC[C@](O)(c2ccc(Cl)cc2)C(C)(C)C1)C(C)C [Example 1083] | – | – | – | – | – | – | – | 2.6 | – |

Source: patent US8642622B2, “Piperidinyl compound as a modulator of chemokine receptor activity” (Bristol-Myers Squibb Company, priority 2010, dated 2014)
